Laboratory results reported in patent US10214509B2, “Amino-substituted heterocyclic derivatives as sodium channel inhibitors” (ALMIRALL, S.A., priority 2015, dated 2019).
One block for each compound: values may come before it.

Tests used:
[1] = molecular target: voltage-gated sodium channel Nav1.5 (Homo sapiens (Human), UniProt Q14524); experiment: Nav1.5 screening assay, IonWorks Quattro automated patch-clamp electrophysiology; assay type: cell-based; conditions: stable cell line expressing Nav1.5; holding potential −120 mV; compound incubation 5 minutes; IC50 fitted to percent block; read-out: Nav 1.5 IC50
Description: (§1) Assay Procedure Nav1.7 and Nav1.5 Screening Assay
(§2) Stable cell lines expressing the full-length protein of the voltage-gated sodium channels Nav1.7 or Nav1.5, with or without one beta-1, beta-2, beta-3, or beta-4 subunit, are created by transfected CHO cells or HEK293 cells, or any other suitable cell line, with a vector construct containing the complete open reading frame under a suitable promoter, as well known in the art.
(§3) Electrophysiological studies are performed with an IonWorks Quattro (Molecular Devices Corp.) automated patch-clamp electrophysiology platform as described by (Schroeder K et al. Journal of Biomolecular Screening 2003, 8 (1), 50-64). Buffers for the experiments have the following composition (mM): Internal solution; K-gluconate 100, KCl 40, MgCl2 3.2, HEPES 5, EGTA 3, pH 7.3. To this amphotericin B is added to final concentration of 0.1 mg/ml to generate access solution. External solution; Dulbecco's Phosphate buffered saline (D-PBS) NaCl 137.93, KCl 2.67, KH2PO4 1.47, Na2HPO4 8.06, CaCl2 0.90, MgCl2 0.49. Prior to the experiment the cells expressing the voltage-gated ion channel of interest are detached from the tissue culture flasks, centrifuged and resuspended in D-PBS. Compounds are prepared and serially diluted in DMSO and finally diluted 1:100 in D-PBS. Cells are exposed to compounds through the pipetting system integrated into the platform and the voltage-gated ion channel of interest is activated with specific voltage stimulation protocols. The following voltage stimulation protocol is used for testing compounds against the voltage-gated sodium channel Nav1.7; from a holding potential of −100 mV a train of eight 60 ms depolarising steps to −20 mV at a frequency of 14 Hz are employed followed by a further step to −20 mV for 2000 ms. After which the voltage is returned to −100 mV for 10 ms before another voltage step to −20 mV for 60 ms is applied. The following voltage stimulation protocol is used for testing compounds against the voltage-gated sodium channel Nav1.5; from a holding potential of −120 mV a train of twenty-six 120 ms depolarising steps to −20 mV at a frequency of 5 Hz are employed. Recordings are made before and after compound addition with the compound incubation time being 5 minutes.
(§4) Percent block was calculated for each concentration in duplicate for peak 1 and peak 10 and peak 1 and 25 for Nav 1.7 and Nav 1.5 respectively in order to assess compound activity at close and inactivated states and IC50 curves were fitted to percent block as a function of concentration.

[2] = molecular target: voltage-gated sodium channel Nav1.7 (Homo sapiens (Human), UniProt Q15858); experiment: Nav1.7 screening assay, IonWorks Quattro automated patch-clamp electrophysiology; assay type: cell-based; conditions: stable cell line expressing Nav1.7; holding potential −100 mV; compound incubation 5 minutes; IC50 fitted to percent block; read-out: Nav 1.7 IC50
Description: as §1, §2, §3, §4

Chain of voltage-gated sodium channel Nav1.7 (Q15858 whole entry): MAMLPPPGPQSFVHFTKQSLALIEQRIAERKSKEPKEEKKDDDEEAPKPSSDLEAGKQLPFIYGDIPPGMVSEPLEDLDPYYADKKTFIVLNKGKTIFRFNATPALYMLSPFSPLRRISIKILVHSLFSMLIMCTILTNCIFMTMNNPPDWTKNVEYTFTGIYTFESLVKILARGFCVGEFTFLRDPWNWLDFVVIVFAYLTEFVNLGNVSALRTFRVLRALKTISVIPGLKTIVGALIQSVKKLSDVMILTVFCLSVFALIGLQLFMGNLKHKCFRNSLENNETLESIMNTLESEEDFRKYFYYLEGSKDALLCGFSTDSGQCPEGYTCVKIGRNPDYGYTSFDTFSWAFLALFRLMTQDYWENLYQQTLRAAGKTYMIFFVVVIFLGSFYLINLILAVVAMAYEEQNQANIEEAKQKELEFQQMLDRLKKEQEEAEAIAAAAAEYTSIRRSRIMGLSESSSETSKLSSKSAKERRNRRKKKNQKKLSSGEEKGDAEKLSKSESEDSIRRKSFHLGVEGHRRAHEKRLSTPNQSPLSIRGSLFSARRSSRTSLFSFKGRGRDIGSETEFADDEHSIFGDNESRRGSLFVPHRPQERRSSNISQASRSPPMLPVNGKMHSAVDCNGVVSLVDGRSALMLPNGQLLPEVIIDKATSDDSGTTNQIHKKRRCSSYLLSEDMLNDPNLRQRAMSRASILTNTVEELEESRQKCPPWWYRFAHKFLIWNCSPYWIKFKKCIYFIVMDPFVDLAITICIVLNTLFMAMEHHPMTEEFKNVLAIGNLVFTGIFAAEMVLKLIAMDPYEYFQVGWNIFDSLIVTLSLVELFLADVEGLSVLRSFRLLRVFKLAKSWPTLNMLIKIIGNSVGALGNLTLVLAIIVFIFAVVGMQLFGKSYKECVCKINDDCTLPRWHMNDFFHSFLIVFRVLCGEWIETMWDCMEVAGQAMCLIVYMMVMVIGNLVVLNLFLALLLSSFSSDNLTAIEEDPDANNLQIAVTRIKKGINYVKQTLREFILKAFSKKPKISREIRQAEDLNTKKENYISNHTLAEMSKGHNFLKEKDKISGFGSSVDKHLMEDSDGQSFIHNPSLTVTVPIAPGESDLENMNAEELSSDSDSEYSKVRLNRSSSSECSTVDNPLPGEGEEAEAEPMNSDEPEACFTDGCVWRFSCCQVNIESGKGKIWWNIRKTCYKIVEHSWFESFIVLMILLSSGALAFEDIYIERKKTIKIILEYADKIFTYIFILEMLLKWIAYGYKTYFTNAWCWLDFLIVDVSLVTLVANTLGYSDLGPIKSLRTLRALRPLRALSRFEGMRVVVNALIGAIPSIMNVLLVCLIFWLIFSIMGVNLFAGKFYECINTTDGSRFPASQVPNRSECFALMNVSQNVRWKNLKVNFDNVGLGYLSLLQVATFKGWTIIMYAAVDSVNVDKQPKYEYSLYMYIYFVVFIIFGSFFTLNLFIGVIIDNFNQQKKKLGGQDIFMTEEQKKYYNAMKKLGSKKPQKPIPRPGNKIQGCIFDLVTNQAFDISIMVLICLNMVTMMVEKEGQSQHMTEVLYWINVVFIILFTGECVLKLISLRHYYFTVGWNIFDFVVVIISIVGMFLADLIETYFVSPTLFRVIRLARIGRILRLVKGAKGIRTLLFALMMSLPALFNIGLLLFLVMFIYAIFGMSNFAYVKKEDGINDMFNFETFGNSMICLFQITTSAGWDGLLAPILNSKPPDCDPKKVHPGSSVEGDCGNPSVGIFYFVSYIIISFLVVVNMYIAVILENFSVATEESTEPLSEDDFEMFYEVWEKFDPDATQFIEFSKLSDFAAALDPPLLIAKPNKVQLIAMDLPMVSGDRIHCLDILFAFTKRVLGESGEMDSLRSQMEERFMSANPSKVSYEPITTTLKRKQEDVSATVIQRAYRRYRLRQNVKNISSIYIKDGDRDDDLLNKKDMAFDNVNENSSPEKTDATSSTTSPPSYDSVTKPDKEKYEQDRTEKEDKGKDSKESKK
Chain of voltage-gated sodium channel Nav1.5 (Q14524 whole entry): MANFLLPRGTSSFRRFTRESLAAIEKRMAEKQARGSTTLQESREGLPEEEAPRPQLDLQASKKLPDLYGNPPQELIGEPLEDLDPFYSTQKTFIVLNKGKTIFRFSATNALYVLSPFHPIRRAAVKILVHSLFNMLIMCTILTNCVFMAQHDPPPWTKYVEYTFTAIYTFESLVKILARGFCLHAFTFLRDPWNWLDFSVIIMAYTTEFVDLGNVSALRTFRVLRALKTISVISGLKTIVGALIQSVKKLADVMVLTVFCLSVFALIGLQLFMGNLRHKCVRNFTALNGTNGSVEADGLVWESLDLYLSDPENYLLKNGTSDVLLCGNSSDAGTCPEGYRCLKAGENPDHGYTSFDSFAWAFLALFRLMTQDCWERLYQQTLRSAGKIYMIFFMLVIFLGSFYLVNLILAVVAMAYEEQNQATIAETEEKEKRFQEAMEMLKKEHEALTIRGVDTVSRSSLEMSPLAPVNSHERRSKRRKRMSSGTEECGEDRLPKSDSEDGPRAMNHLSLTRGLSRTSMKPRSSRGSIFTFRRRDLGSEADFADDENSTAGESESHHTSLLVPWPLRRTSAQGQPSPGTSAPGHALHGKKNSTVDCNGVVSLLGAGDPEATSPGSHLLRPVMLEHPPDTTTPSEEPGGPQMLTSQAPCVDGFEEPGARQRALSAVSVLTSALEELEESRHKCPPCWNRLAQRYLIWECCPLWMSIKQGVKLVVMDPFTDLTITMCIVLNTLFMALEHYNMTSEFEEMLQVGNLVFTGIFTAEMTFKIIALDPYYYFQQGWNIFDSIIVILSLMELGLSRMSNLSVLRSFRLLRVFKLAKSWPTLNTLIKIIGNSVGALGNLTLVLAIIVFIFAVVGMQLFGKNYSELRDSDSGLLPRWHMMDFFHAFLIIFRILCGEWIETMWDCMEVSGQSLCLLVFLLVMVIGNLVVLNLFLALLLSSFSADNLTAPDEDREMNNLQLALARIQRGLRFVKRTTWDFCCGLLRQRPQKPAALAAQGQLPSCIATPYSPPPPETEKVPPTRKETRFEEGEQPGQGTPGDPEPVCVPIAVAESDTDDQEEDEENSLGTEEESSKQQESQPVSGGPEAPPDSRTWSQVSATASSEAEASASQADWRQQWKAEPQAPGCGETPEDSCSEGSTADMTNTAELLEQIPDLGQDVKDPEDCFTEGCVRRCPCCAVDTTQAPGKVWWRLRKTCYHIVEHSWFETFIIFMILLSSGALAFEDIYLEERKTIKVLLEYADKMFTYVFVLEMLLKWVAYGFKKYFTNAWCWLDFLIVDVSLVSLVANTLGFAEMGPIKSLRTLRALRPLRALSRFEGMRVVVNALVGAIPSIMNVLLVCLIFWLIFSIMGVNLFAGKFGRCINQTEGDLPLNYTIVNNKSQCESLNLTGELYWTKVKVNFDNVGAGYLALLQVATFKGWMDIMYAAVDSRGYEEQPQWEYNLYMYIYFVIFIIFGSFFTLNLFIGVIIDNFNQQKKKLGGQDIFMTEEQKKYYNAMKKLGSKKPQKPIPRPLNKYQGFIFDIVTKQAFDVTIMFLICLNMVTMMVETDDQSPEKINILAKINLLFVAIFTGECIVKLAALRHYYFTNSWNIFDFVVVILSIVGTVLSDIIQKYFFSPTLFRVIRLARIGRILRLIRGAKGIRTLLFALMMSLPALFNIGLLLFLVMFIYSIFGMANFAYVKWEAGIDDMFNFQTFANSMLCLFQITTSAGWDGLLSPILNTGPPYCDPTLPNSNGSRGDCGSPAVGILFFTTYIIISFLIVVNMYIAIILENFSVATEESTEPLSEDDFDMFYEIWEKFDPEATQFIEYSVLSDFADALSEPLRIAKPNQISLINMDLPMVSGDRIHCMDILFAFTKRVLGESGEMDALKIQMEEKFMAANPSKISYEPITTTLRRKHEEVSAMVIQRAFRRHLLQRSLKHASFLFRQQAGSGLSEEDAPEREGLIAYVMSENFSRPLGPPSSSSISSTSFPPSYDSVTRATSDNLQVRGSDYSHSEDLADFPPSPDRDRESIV

Compound: 5-Amino-1-(2-(2-methoxyethoxy)phenyl)-3-methyl-N-(2-methyl-4-(trifluoromethyl)phenyl)-1H-pyrazole-4-carboxamide [Example 115]
- IC50 [1]: > 33000 nM
- IC50 [2]: 700 nM

Compound: Cc1c(F)cccc1-n1ncc(C(=O)N2CCc3cc(Cl)ccc32)c1N [Example 57, (5-Amino-1-(3-fluoro-2-methylphenyl)-1H-pyrazol-4-yl)(5-chloroindolin-1-yl)methanone]
- IC50 [1]: > 33000 nM
- IC50 [2]: 800 nM

Compound: COc1ccccc1-n1ncc(C(=O)N2CCc3cc(Cl)ccc32)c1N [Example 61, (5-Amino-1-(2-methoxyphenyl)-1H-pyrazol-4-yl)(5-chloroindolin-1-yl)methanone]
- IC50 [1]: 28000 nM
- IC50 [2]: 900 nM

Compound: Cc1c(F)cccc1-n1nnc(C(=O)Nc2ccc(Cl)cn2)c1N [Example 75, 5-Amino-N-(5-chloropyridin-2-yl)-1-(3-fluoro-2-methylphenyl)-1H-1,2,3-triazole-4-carboxamide]
- IC50 [1]: > 33000 nM
- IC50 [2]: 800 nM

Compound: CCc1ccccc1-n1ncc(C(=O)Nc2ccc(OCC(F)(F)F)cn2)c1N [Example 140, 5-Amino-1-(2-ethylphenyl)-N-(5-(2,2,2-trifluoroethoxy)pyridin-2-yl)-1H-pyrazole-4-carboxamide]
- IC50 [1]: > 33000 nM
- IC50 [2]: 1000 nM

Compound: Nc1c(C(=O)Nc2ccc(Cl)cn2)cnn1-c1ccccc1-c1cccnc1 [Example 196, 5-Amino-N-(5-chloropyridin-2-yl)-1-(2-(pyridin-3-yl)phenyl)-1H-pyrazole-4-carboxamide]
- IC50 [1]: 17000 nM
- IC50 [2]: 700 nM

Compound: COc1cc(-c2ccccc2-n2ncc(C(=O)Nc3ccc(Cl)cn3)c2N)ccn1 [Example 197, 5-Amino-N-(5-chloropyridin-2-yl)-1-(2-(2-methoxypyridin-4-yl)phenyl)-1H-pyrazole-4-carboxamide]
- IC50 [1]: > 33000 nM
- IC50 [2]: 1000 nM

Compound: COc1ccccc1-n1cnc(C(=O)Nc2ccc(Cl)cc2)c1N [Example 254, 5-Amino-N-(4-chlorophenyl)-1-(2-methoxyphenyl)-1H-imidazole-4-carboxamide]
- IC50 [1]: > 33000 nM
- IC50 [2]: 1900 nM

Second part, led by results:

- IC50 [2]: 700 nM
Compound: COc1ccccc1-n1ncc(C(=O)Nc2ccc(Cl)cc2)c1N [Example 1, 5-Amino-N-(4-chlorophenyl)-1-(2-methoxyphenyl)-1H-pyrazole-4-carboxamide]
- IC50 [1]: 21000 nM

- IC50 [2]: 300 nM
Compound: Cc1ccccc1-n1ncc(C(=O)Nc2ccc(Cl)cc2F)c1N [Example 7, 5-Amino-N-(4-chloro-2-fluoro-phenyl)-1-(o-tolyl)-1H-pyrazole-4-carboxamide]
- IC50 [1]: > 33000 nM

- IC50 [2]: 700 nM
Compound: COCCOc1ccccc1-n1nc(C)c(C(=O)Nc2ccc(C(F)(F)F)cc2F)c1N [Example 38, 5-Amino-N-(2-fluoro-4-(trifluoromethyl)phenyl)-1-(2-(2-methoxyethoxy)phenyl)-3-methyl-1H-pyrazole-4-carboxamide]
- IC50 [1]: > 33000 nM

- IC50 [2]: 500 nM
Compound: Cc1c(F)cccc1-n1ncc(C(=O)Nc2ccc(OC(F)(F)F)cn2)c1N [Example 55, 5-Amino-1-(3-fluoro-2-methylphenyl)-N-(5-(trifluoromethoxy)pyridin-2-yl)-1H-pyrazole-4-carboxamide]
- IC50 [1]: > 33000 nM

- IC50 [2]: 400 nM
Compound: CCc1nn(-c2ccccc2OC)c(N)c1C(=O)Nc1ccc(C(F)(F)F)cn1 [Example 114, 5-Amino-3-ethyl-1-(2-methoxyphenyl)-N-(5-(trifluoromethyl)pyridin-2-yl)-1H-pyrazole-4-carboxamide]
- IC50 [1]: > 33000 nM

- IC50 [2]: 600 nM
Compound: Cc1nn(-c2cccc(F)c2C)c(N)c1C(=O)Nc1ccc(Cl)cn1 [Example 137, 5-Amino-N-(5-chloro-2-pyridyl)-1-(3-fluoro-2-methylphenyl)-3-methyl-pyrazole-4-carboxamide]
- IC50 [1]: > 33000 nM

- IC50 [2]: 300 nM
Compound: CCc1nn(-c2cccc(F)c2C)c(N)c1C(=O)Nc1ccc(C(F)(F)F)cn1 [Example 143, 5-Amino-3-ethyl-1-(3-fluoro-2-methylphenyl)-N-[5-trifluoromethyl-2-pyridyl]pyrazole-4-carboxamide]
- IC50 [1]: 10000 nM

- IC50 [2]: 400 nM
Compound: Cc1nn(-c2ccccc2F)c(N)c1C(=O)Nc1ccc(C(F)(F)F)cn1 [Example 153, 5-Amino-1-(2-fluorophenyl)-3-methyl-N-(5-(trifluoromethyl)pyridin-2-yl)-1H-pyrazole-4-carboxamide]
- IC50 [1]: > 33000 nM

- IC50 [2]: 300 nM
Compound: Nc1c(C(=O)Nc2ccc(C(F)(F)F)cn2)cnn1-c1ccccc1O [Example 208, 5-Amino-1-(2-hydroxyphenyl)-N-(5-(trifluoromethyl)pyridin-2-yl)-1H-pyrazole-4-carboxamide]
- IC50 [1]: > 33000 nM

- IC50 [2]: 200 nM
Compound: Cc1c(F)cccc1-n1cnc(C(=O)Nc2ccc(C(F)(F)F)cn2)c1N [Example 251, 5-Amino-1-(3-fluoro-2-methylphenyl)-N-(5-(trifluoromethyl)pyridin-2-yl)-1H-imidazole-4-carboxamide]
